Results as given in patent US20160251342A1, “ALDEHYDE DERIVATIVE OF SUBSTITUTED OXAZOLIDINONES” (WANBURY LTD., priority 2012, published 2016).

Key:
[1] = In vitro stability in mouse plasma (LC-MS); type: in vitro ADME; conditions: for % Parent remaining (Mouse): rivaroxaban itself incubated
Description: The final concentration of the test compound in the assay is 5 micromolar. […] C. The 100 microlitres of aliquot at time point was removed and diluted with ice cold acetonitrile containing IS (200 µL) to stop the reactions. Samples are centrifuged at 10,000 RPM for 5 minutes to precipitate proteins. Supernatants are transferred to micro centrifuge tubes and stored at −20° C. for analysis of LC/MS/MS. The percent parent remaining of the test substance is calculated as ratio of peak area at each time point to peak area ratio at zero min, multiplied by 100.
API 4000, ESI Agilent 1100 column: Gemini Nx 100 mm×4.6 mm 5.μ; column temperature: 30° C.; eluent A: 0.1% formic acid in water, eluent B: acetonitrile; gradient: 0-2.5 min 95% A, 5% B; 2.5-2.6 min 5% A, 95% B; 2.6-4.2 min 95% A, 5% B; flow rate: 0.8 ml/min; ESI. Q1:464.098, Q3:144.255

[2] = In vitro liver microsomal stability assay, human; type: in vitro ADME; conditions: human microsomes; for % Parent remaning (Human): rivaroxaban itself incubated
Description: (§1) Liver microsomal stability assays are conducted at 1 mg per mL liver microsome protein with an NADPH in phosphate buffer (100 mM, pH 7.4). Test compounds (compound of formula B of the invention) are prepared as solutions in 20% methanol-water and added to the assay mixture (final assay concentration 1 μM) and incubated at 37° C. Aliquots (100 .μ.L) are taken out at times 0, 15, and 30 minutes, and diluted with ice cold acetonitrile containing IS (200 µL) to stop the reactions. Samples are centrifuged at 10,000 RPM for 5 minutes to precipitate proteins. Supernatants are transferred to micro centrifuge tubes and stored at −20° C. for analysis of LC/MS/MS. The percent parent remaining of the test substance is calculated as Ratio of peak area at each time point to peak area ratio at zero min, multiplied by 100. The compound formula (B) is converted to Rivaroxaban in microsomal assay.

[3] = In vitro liver microsomal stability assay, rat; type: in vitro ADME; conditions: rat microsomes; for % Parent remaining (rat): rivaroxaban itself incubated
Description: as §1

[4] = In vitro liver microsomal stability assay, mouse; type: in vitro ADME; conditions: mouse microsomes
Description: as §1

[5] = system: thrombus formation; assay: Arteriovenous shunt model (rat); type: in vivo, rats (strain: Wistar); conditions: for ED50: Rattus norvegicus, arteriovenous shunt, read-out: ED-50 to inhibit the thrombus formation
Text: Fasting male rats (strain: Wistar) having a weight of 280-320 g were anaesthetized using a isoflurane/oxygen. Thrombus formation was initiated in an arteriovenous shunt in accordance with the method described by Christopher N. Berry et al., Br. J. Pharmacol. (1994), 113, 1209-1214. To this end, the left jugular vein and the right carotid artery were exposed. The two vessels were connected by an extracorporeal shunt using a 10 cm long Poly Vinyl Chloride tube (.P.V.C.) 9 internal diameter i.d. 0.5 mm), in middle of PVC tubing a 5 cm Scalp vein tube (i.d. 1.5 mm) will be attached which contained a 3 cm long roughened surface nylon thread which will be arranged to form a loop to form a thrombogenic surface. The extracorporeal circulation was maintained for 15 minutes. The shunt was then removed and the nylon thread with the thrombus was weighed immediately. The weight of the nylon thread on its own had been determined before the experiment was started. Before the extracorporeal circulation was set up, The test item [compound formula (B) (Wanxaban)/reference item (Rivaroxaban)/vehicle will be administered to the animals as per routes preferred. Animals were grouped by body weight stratification and randomization (Represented by G1-[…]). The grouping was done one day prior to the experiment initiation.

[6] = system: thrombus formation; assay: Arterial thrombosis model (rat); type: in vivo, rats (strain: Wistar); conditions: for ED50: Rattus norvegicus, arterial thrombosis, read-out: ED-50 to inhibit the thrombus formation
Description: Male fasting rats (strain: Wistar) having a weight 280-320 g were anaesthetized using isoflurane/oxygen. The left carotid artery was exposed (about 2 cm). The formation of an arterial thrombus was induced by mechanical injury to the blood vessel in accordance with the method described by K. Meng et al., Naunyn-Schmiedeberg's Arch. Pharmacol. (1977), 301, 115-119. To this end, the exposed carotid artery was clamped from the blood flow, cooled to -20° C. in a metal trough for 2 minutes and, to standardize the size of the thrombi, simultaneously compressed using a weight of 200 g. […] The proximal clamp was removed, and the wound was closed and re-opened after 2 hours to remove the injured section of the vessel. The section of the vessel was opened longitudinally and the thrombus was removed from the injured section of the vessel. The moist weight of the thrombi was determined immediately. […] Animals were grouped by body weight stratification and randomization (Represented by G1-[…]). The grouping was done one day prior to the experiment initiation.

[7] = system: thrombus formation; assay: Venous thrombosis model (rat); type: in vivo, rats (strain: Wistar); conditions: for ED50: Rattus norvegicus, venous thrombosis, per oral, read-out: ED-50 to inhibit the thrombus formation; for Mean thrombus weight (mg) (±SEM): per oral 120 minutes before induction, vehicle 4.36 ± 0.58
Description: Male fasting rats (strain: Wistar) having a weight 280-320 g were anaesthetized using isoflurane/oxygen. The left jugular vein was exposed (about 2 cm). The formation of a venous thrombus was induced by mechanical injury to the blood vessel in accordance with the method described by K. Meng, et al., Naunyn-Schmiedeberg's Arch. Pharmacol. (1977), 301, 115-119. To this end, the jugular vein was clamped from the blood flow, cooled to -12° C. in a metal trough for 2 minutes and, to standardize the size of the thrombi, simultaneously compressed using a weight of 200 g. The blood flow was re-opened and the wound was closed. After 4 hours, the wound was re-opened to remove the thrombi from the injured sections of the vessel. The moist weight of the thrombi was determined immediately. […] Animals were grouped by body weight stratification and randomization (Represented by G12-[…]). The grouping was done one day prior to the experiment initiation.

[8] = intravenous, Dose 0.5, vehicle 27.26 ± 1.23
[9] = intravenous, Dose 1, vehicle 27.26 ± 1.23
[10] = intravenous, Dose 2, vehicle 27.26 ± 1.23
[11] = intravenous, Dose 3, vehicle 27.26 ± 1.23
[12] = intravenous, Dose 4, vehicle 27.26 ± 1.23
[13] = per oral, Dose 2.5, vehicle 26.95 ± 1.23
[14] = per oral, Dose 5, vehicle 26.95 ± 1.23
[15] = per oral, Dose 10, vehicle 26.95 ± 1.23
[16] = per oral, Dose 15, vehicle 26.95 ± 1.23
[17] = per oral, Dose 20, vehicle 26.95 ± 1.23
[18] = intravenous 5 minutes before induction, Dose 0.5, vehicle 2.08 ± 0.47
[19] = intravenous 5 minutes before induction, Dose 1, vehicle 2.08 ± 0.47
[20] = intravenous 5 minutes before induction, Dose 2, vehicle 2.08 ± 0.47
[21] = intravenous 5 minutes before induction, Dose 3, vehicle 2.08 ± 0.47
[22] = intravenous 5 minutes before induction, Dose 4, vehicle 2.08 ± 0.47
[23] = per oral 120 minutes before induction, Dose 2.5, vehicle 1.70 ± 0.39
[24] = per oral 120 minutes before induction, Dose 5.0, vehicle 1.70 ± 0.39
[25] = per oral 120 minutes before induction, Dose 10, vehicle 1.70 ± 0.39
[26] = per oral 120 minutes before induction, Dose 15, vehicle 1.70 ± 0.39
[27] = per oral 120 minutes before induction, Dose 20, vehicle 1.70 ± 0.39

Question: What does the source list for O=CN(C[C@H]1CN(c2ccc(N3CCOCC3=O)cc2)C(=O)O1)C(=O)c1ccc(Cl)s1 [compound formula (B), 5-chloro-N-formyl-N-({(5S)-2-oxo-3-[4-(3-oxomorpholin-4-yl)phenyl]-1,3-oxazolidin-5-yl}methyl)thiophene-2-carboxamide]?
Answer: Amount of test product detected (conversion to rivaroxaban from zero min) [1]: min. Neglible; Amount of test product detected (metabolised to rivaroxaban from zero min) [2]: Neglible; Amount of test product detected (metabolised to rivaroxaban from zero min) [3]: min. Neglible; Amount of test product detected (metabolised to rivaroxaban from zero min) [4]: min. Neglible; ED50 ([5]; intravenous): 1 mg/kg; ED50 ([5]; per oral): 22.8 mg/kg; Mean thrombus weight (mg) (±SEM) [5, 8]: 18.7 ± 1.22 mg; Mean thrombus weight (mg) (±SEM) [5, 9]: 13.99 ± 2 mg; Mean thrombus weight (mg) (±SEM) [5, 10]: 8.45 ± 0.75 mg; Mean thrombus weight (mg) (±SEM) [5, 11]: 5.83 ± 0.31 mg; Mean thrombus weight (mg) (±SEM) [5, 12]: 4.81 ± 0.31 mg; Mean thrombus weight (mg) (±SEM) [5, 13]: 3.81 ± 1.55 mg; Mean thrombus weight (mg) (±SEM) [5, 14]: 1.60 ± 0.10 mg; Mean thrombus weight (mg) (±SEM) [5, 15]: 0.66 ± 0.09 mg; Mean thrombus weight (mg) (±SEM) [5, 16]: 0.53 ± 0.18 mg; Mean thrombus weight (mg) (±SEM) [5, 17]: 0.62 ± 0.16 mg; ED50 ([6]; intravenous): 0.5 mg/kg; ED50 ([6]; per oral): 4 mg/kg; Mean thrombus weight (mg) (±SEM) [6, 18]: 1.32 ± 0.17 mg; Mean thrombus weight (mg) (±SEM) [6, 19]: 0.60 ± 0.09 mg; Mean thrombus weight (mg) (±SEM) [6, 20]: 0.61 ± 0.09 mg; Mean thrombus weight (mg) (±SEM) [6, 21]: 0.47 ± 0.05 mg; Mean thrombus weight (mg) (±SEM) [6, 22]: 0.36 ± 0.03 mg; Mean thrombus weight (mg) (±SEM) [6, 23]: 1.15 ± 0.13 mg; Mean thrombus weight (mg) (±SEM) [6, 24]: 0.71 ± 0.04 mg; Mean thrombus weight (mg) (±SEM) [6, 25]: 0.78 ± 0.14 mg; Mean thrombus weight (mg) (±SEM) [6, 26]: 0.58 ± 0.11 mg; Mean thrombus weight (mg) (±SEM) [6, 27]: 0.44 ± 0.04 mg; ED50 [7]: 1.9 mg/kg; Mean thrombus weight (mg) (±SEM) ([7]; Dose 2.5): 3.81 ± 1.55 mg; Mean thrombus weight (mg) (±SEM) ([7]; Dose 5.0): 1.60 ± 0.10 mg; Mean thrombus weight (mg) (±SEM) ([7]; Dose 10): 0.66 ± 0.09 mg; Mean thrombus weight (mg) (±SEM) ([7]; Dose 15): 0.53 ± 0.18 mg; Mean thrombus weight (mg) (±SEM) ([7]; Dose 20): 0.62 ± 0.16 mg

Question: What does the source list for O=C(NC[C@H]1CN(c2ccc(N3CCOCC3=O)cc2)C(=O)O1)c1ccc(Cl)s1 [Rivaroxaban, 5-chloro-N-({(5S)-2-oxo-3-[4-(3-oxomorpholin-4-yl)phenyl]-1,3-oxazolidin-5-yl}methyl)thiophene-2-carboxamide, reference compound]?
Answer: Conversion summary: unchanged, stable in plasma ([1]; rivaroxaban itself): unchanged,; % Parent remaining (Mouse) ([1]; 0 min): 100%; % Parent remaining (Mouse) ([1]; 30 min): 100%; % Parent remaining (Mouse) ([1]; 60 min): 100%; % Parent remaning (Human) ([2]; 0 min): 100%; % Parent remaning (Human) ([2]; 15 min): 0.01%; % Parent remaning (Human) ([2]; 30 min): 0.01%; Observation: metabolism ([3]; rivaroxaban itself): High; % Parent remaining (rat) ([3]; 0 min): 100%; % Parent remaining (rat) ([3]; 15 min): 0.01%; % Parent remaining (rat) ([3]; 30 min): 0.02%; Observation: metabolism ([4]; rivaroxaban itself): High; ED50 ([5]; intravenous): 1.7 mg/kg; ED50 ([5]; per oral): 26.2 mg/kg; Mean thrombus weight (mg) (±SEM) [5, 8]: 13.95 ± 1.49 mg; Mean thrombus weight (mg) (±SEM) [5, 9]: 10.84 ± 1.16 mg; Mean thrombus weight (mg) (±SEM) [5, 10]: 10.83 ± 1.11 mg; Mean thrombus weight (mg) (±SEM) [5, 11]: 6.92 ± 0.57 mg; Mean thrombus weight (mg) (±SEM) [5, 12]: 7.56 ± 0.59 mg; Mean thrombus weight (mg) (±SEM) [5, 13]: 19.2 ± 0.2 mg; Mean thrombus weight (mg) (±SEM) [5, 14]: 17.26 ± 0.75 mg; Mean thrombus weight (mg) (±SEM) [5, 15]: 15.41 ± 1.25 mg; Mean thrombus weight (mg) (±SEM) [5, 16]: 16.9 ± 0.49 mg; Mean thrombus weight (mg) (±SEM) [5, 17]: 9.7 ± 1.34 mg; ED50 ([6]; intravenous): 2.5 mg/kg; ED50 ([6]; per oral): 24.2 mg/kg; Mean thrombus weight (mg) (±SEM) [6, 18]: 1.10 ± 0.32 mg; Mean thrombus weight (mg) (±SEM) [6, 19]: 0.62 ± 0.08 mg; Mean thrombus weight (mg) (±SEM) [6, 20]: 0.70 ± 0.11 mg; Mean thrombus weight (mg) (±SEM) [6, 21]: 0.41 ± 0.05 mg; Mean thrombus weight (mg) (±SEM) [6, 22]: 0.34 ± 0.08 mg; Mean thrombus weight (mg) (±SEM) [6, 23]: 1.71 ± 0.45 mg; Mean thrombus weight (mg) (±SEM) [6, 24]: 1.78 ± 0.66 mg; Mean thrombus weight (mg) (±SEM) [6, 25]: 0.84 ± 0.23 mg; Mean thrombus weight (mg) (±SEM) [6, 26]: 0.78 ± 0.14 mg; Mean thrombus weight (mg) (±SEM) [6, 27]: 0.65 ± 0.10 mg; ED50 [7]: 12.3 mg/kg; Mean thrombus weight (mg) (±SEM) ([7]; Dose 2.5): 2.93 ± 0.50 mg; Mean thrombus weight (mg) (±SEM) ([7]; Dose 5.0): 2.06 ± 0.73 mg; Mean thrombus weight (mg) (±SEM) ([7]; Dose 10): 2.06 ± 0.53 mg; Mean thrombus weight (mg) (±SEM) ([7]; Dose 15): 1.43 ± 0.46 mg; Mean thrombus weight (mg) (±SEM) ([7]; Dose 20): 1.66 ± 0.74 mg
